Source: BigSolDB 2.1

CC1(C)COP(=O)(C(C)(O)c2ccccc2)OC1 (configuration not stated)
Settings | solubility (mole fraction)
in 1,2-dichloroethane, 278.35 K | 0.00107
in 1,2-dichloroethane, 283.25 K | 0.00117
in 1,2-dichloroethane, 288.45 K | 0.00154
in 1,2-dichloroethane, 293.35 K | 0.00171
in 1,2-dichloroethane, 298.25 K | 0.00218
in 1,2-dichloroethane, 303.15 K | 0.00258
in 1,2-dichloroethane, 308.25 K | 0.00291
in 1,2-dichloroethane, 313.15 K | 0.00359
in 1,2-dichloroethane, 318.05 K | 0.00454
in 1,2-dichloroethane, 322.95 K | 0.00542
in 1,2-dichloroethane, 328.15 K | 0.00651
in 1,2-dichloroethane, 333.25 K | 0.00803
in 1,2-dichloroethane, 338.15 K | 0.00933
in acetone, 278.15 K | 0.00106
in acetone, 283.25 K | 0.00132
in acetone, 288.45 K | 0.0018
in acetone, 293.25 K | 0.0023
in acetone, 298.35 K | 0.0031
in acetone, 303.35 K | 0.00363
in acetone, 308.15 K | 0.00469
in acetone, 313.25 K | 0.00547
in acetone, 318.05 K | 0.00593
in acetone, 323.15 K | 0.00616
in acetonitrile, 283.25 K | 0.00144
in acetonitrile, 288.45 K | 0.00169
in acetonitrile, 293.35 K | 0.00198
in acetonitrile, 298.25 K | 0.00221
in acetonitrile, 303.25 K | 0.00268
in acetonitrile, 308.15 K | 0.00342
in acetonitrile, 313.35 K | 0.00392
in acetonitrile, 318.15 K | 0.0046
in acetonitrile, 323.05 K | 0.00562
in acetonitrile, 327.95 K | 0.00654
in acetonitrile, 333.05 K | 0.00866
in chloroform, 278.25 K | 0.0048
in chloroform, 283.35 K | 0.00547
in chloroform, 288.15 K | 0.00651
in chloroform, 293.05 K | 0.00768
in chloroform, 298.45 K | 0.00866
in chloroform, 303.35 K | 0.00944
in chloroform, 308.15 K | 0.0111
in chloroform, 313.05 K | 0.0128
in chloroform, 317.95 K | 0.0154
in chloroform, 323.15 K | 0.0188
in ethanol, 278.45 K | 0.00558
in ethanol, 283.25 K | 0.00618
in ethanol, 288.15 K | 0.0068
in ethanol, 293.25 K | 0.00786
in ethanol, 298.35 K | 0.00933
in ethanol, 303.05 K | 0.0106
in ethanol, 307.95 K | 0.0125
in ethanol, 313.05 K | 0.014
in ethanol, 318.15 K | 0.0169
in ethanol, 323.05 K | 0.0195
in ethanol, 327.95 K | 0.0239
in ethanol, 333.15 K | 0.0293
in ethanol, 338.05 K | 0.0327
in ethanol, 343.15 K | 0.0374
in ethyl acetate, 297.95 K | 0.00054
in ethyl acetate, 303.35 K | 0.00092
in ethyl acetate, 308.45 K | 0.00131
in ethyl acetate, 313.15 K | 0.00166
in ethyl acetate, 318.05 K | 0.00221
in ethyl acetate, 323.05 K | 0.0024
in ethyl acetate, 328.35 K | 0.00283
in ethyl acetate, 333.25 K | 0.00307
in ethyl acetate, 338.15 K | 0.00336
in ethyl acetate, 342.95 K | 0.0036
in methanol, 283.35 K | 0.0112
in methanol, 288.15 K | 0.0132
in methanol, 293.25 K | 0.0146
in methanol, 298.31 K | 0.0168
in methanol, 303.15 K | 0.0196
in methanol, 307.95 K | 0.0223
in methanol, 313.05 K | 0.0259
in methanol, 317.95 K | 0.0285
in methanol, 323.15 K | 0.0321
